Experimental data reported in US12649719B2, “Modulators of hemoglobin” (Global Blood Therapeutics, Inc., priority 2020, dated 2026).

Legend:
[1] = target: T1, Hb (Homo sapiens, UniProt P68871+P69905); assay: Whole blood assay: oxygen equilibrium curves (Hemox Analyzer), change in O2 affinity of Hb; format: cell-based; settings: whole blood incubated 1 h at 37° C., equimolar ratio of hemoglobin to compound; sodium salts of 2B (Enantiomer 1), 4B, 5B used
T1 construct: from tissue
Method: Oxygen equilibrium curves (OECs) were collected using a TCS Hemox Analyzer (TCS Scientific Company, New Hope, PA, USA) to measure changes in the binding affinity of O2 to Hb. Whole blood was incubated for 1 h at 37° C. with the indicated compounds in an equimolar ratio of hemoglobin to compound and diluted into TES (2-[[1,3-dihydroxy-2-(hydroxymethyl)propan-2-yl]amino]ethanesulfonic acid)/saline buffer prior to measurements. The diluted samples were then oxygenated with compressed air within the Hemox Analyzer and the OECs were collected during deoxygenation as previously described (Guarnone et al., Haematologica, 1995, 80, 426-430). p 50 (partial pressure of 02 at which Hb is 50% saturated with 02) values were obtained using a non-linear regression analysis. Percentage change in p 50 [Δp50(%)]was calculated as follows: Δp50(%)=[(p 50 of control)-p 50 with compound)/p 50 control]x 100. The sodium salts of compounds 2B (Enantiomer 1), 4B, and 5B described above were used.

[2] = Rat PK, oral gavage; format: in vivo; settings: fasted male Sprague-Dawley rats, oral gavage 2 mg/kg and/or 10 mg/kg, sodium salt of 5B used; for half-life: male, Sprague-Dawley, rat, whole blood, po; for T1/2: blood
Method: A group of fasted male Sprague-Dawley rats were dosed via oral gavage at 2 mg/kg and/or 10 mg/kg with test articles formulated in 0.5% methylcellulose suspension with 0.01% polysorbate 80 in PBS (phosphate buffered saline). Blood samples were collected through jugular vein at pre-selected time points. Blood samples were prepared by protein precipitation with ACN, vortexed and then centrifuged before supernatants were transferred for bioanalysis. Test article concentrations were measured by HPLC-MS-MS. Pharmacokinetic parameters were calculated using non-compartment analysis. The T1/2 was calculated via a linear regression of the terminal phase of the blood-time concentration profile.
Results for various compounds disclosed herein (sodium salt of compound 5B described above was used) and select reference compounds (Compound A and Compound B) are summarized in Table 5A and Table 5B.

T1 sequence (P69905 2-142 limits assumed): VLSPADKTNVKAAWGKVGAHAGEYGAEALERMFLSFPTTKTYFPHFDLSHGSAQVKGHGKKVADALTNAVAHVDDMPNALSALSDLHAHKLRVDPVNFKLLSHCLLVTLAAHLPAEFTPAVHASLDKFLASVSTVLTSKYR
T1 sequence (P68871 2-147 limits assumed): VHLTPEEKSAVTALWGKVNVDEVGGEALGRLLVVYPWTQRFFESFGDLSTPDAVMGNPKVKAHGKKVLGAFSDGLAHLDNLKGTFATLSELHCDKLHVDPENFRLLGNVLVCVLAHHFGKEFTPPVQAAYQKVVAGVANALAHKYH

Compound	Delta-p50 (%) [1]	half-life [2]	T1/2 [2]
O=Cc1c(O)cccc1OC[C@@H]1COCCN1C(=O)c1cccnc1C(=O)O [Compound 3B, 3-[(3S)-3-[(2-formyl-3-hydroxyphenoxy)methyl]morpholine-4-carbonyl]pyridine-2-carboxylic acid]	0.65%	–	–
O=Cc1c(O)cccc1OCC1CSCCN1C(=O)c1ccccc1CC(=O)O (stereo not drawn) [Compound 6A, 2-(2-{3-[(2-formyl-3-hydroxyphenoxy)methyl]thiomorpholine-4-carbonyl}phenyl)acetic acid]	5.09%	–	–
O=Cc1c(O)cccc1OC[C@@H]1COCCN1C(=O)c1ccccc1 [Reference Compound B, reference compound]	–	29.8 h	–
O=Cc1c(O)cccc1OC[C@@H]1CCCCN1C(=O)c1ccccc1C(=O)O [Compound 1A, 2-[(2S)-2-[(2-formyl-3-hydroxyphenoxy)methyl]piperidine-1-carbonyl]benzoic acid]	66.43%	110 h	–
O=Cc1c(O)cccc1OC[C@@H]1CCCCN1C(=O)c1ccccc1 [Reference Compound A, reference compound]	–	25.9 h	–
O=Cc1c(O)cccc1OCC1CSCCN1C(=O)c1ccccc1C(=O)O (single isomer, unassigned) [Compound 5A (Enantiomer 1), 2-(3-((2-formyl-3-hydroxyphenoxy)methyl)thiomorpholine-4-carbonyl) benzoic acid]	11.04%	–	213 h
O=Cc1c(O)cccc1OCC1CSCCN1C(=O)c1cccnc1CC(=O)O (single isomer, unassigned) [Compound 2B (Enantiomer 1), 2-{3-[3-[(2-formyl-3-hydroxyphenoxy)methyl]thiomorpholine-4-carbonyl]pyridin-2-yl} acetic acid]	10.72%	–	–
O=Cc1c(O)cccc1OC[C@@H]1CCCCN1C(=O)c1cccnc1C(=O)O [Compound 1B, 3-[(2S)-2-[(2-formyl-3-hydroxyphenoxy)methyl]piperidine-1-carbonyl]pyridine-2-carboxylic acid]	0.4%	11.7 h	–
O=Cc1c(O)cccc1OC[C@@H]1CCCCN1C(=O)c1cccnc1CC(=O)O [Compound 5B, (S)-2-(3-(2-((2-formyl-3-hydroxyphenoxy)methyl)piperidine-1-carbonyl)pyridin-2-yl)acetic acid]	−3.32%	120 h	–
O=Cc1c(O)cccc1OC[C@@H]1COCCN1C(=O)c1ccccc1C(=O)O [Compound 2A, 2-[(3S)-3-[(2-formyl-3-hydroxyphenoxy)methyl]morpholine-4-carbonyl]benzoic acid]	4.19%	–	–
O=Cc1c(O)cccc1OCC1CSCCN1C(=O)c1ccccc1C(=O)O (single isomer, unassigned) [Compound 5A (Enantiomer 2), 2-(3-((2-formyl-3-hydroxyphenoxy)methyl)thiomorpholine-4-carbonyl)benzoic acid]	19.57%	–	13 h
O=Cc1c(O)cccc1OC[C@@H]1COCCN1C(=O)c1ccccc1CCC(=O)O [Compound 8A, 3-{2-[(3S)-3-[(2-formyl-3-hydroxyphenoxy)methyl]morpholine-4-carbonyl]phenyl} propanoic acid]	55.01%	102 h	–
O=Cc1c(O)cccc1OC[C@@H]1COCCN1C(=O)c1ccccc1CC(=O)O [Compound 3A, 2-{2-[(3S)-3-[(2-formyl-3-hydroxyphenoxy)methyl]morpholine-4-carbonyl]phenyl}acetic acid]	11.72%	–	–
O=Cc1c(O)cccc1OC[C@@H]1CCCCN1C(=O)c1ccccc1CCC(=O)O [Compound 7A, 3-{2-[(2S)-2-[(2-formyl-3-hydroxyphenoxy)methyl]piperidine-1-carbonyl]phenyl}propanoic acid]	77.13%	52 h	–
O=Cc1c(O)cccc1OC[C@@H]1COCCN1C(=O)c1cccnc1CC(=O)O [Compound 4B, 2-{3-[(3S)-3-[(2-formyl-3-hydroxyphenoxy)methyl]morpholine-4-carbonyl]pyridin-2-yl} acetic acid]	−8.28%	–	–
O=Cc1c(O)cccc1OC[C@@H]1CSCCN1C(=O)c1ccccc1CCC(=O)O [Compound 9A, 3-{2-[(3R)-3-[(2-formyl-3-hydroxyphenoxy)methyl]thiomorpholine-4-carbonyl]phenyl}propanoic acid]	46.78%	88.7 h	–
O=Cc1c(O)cccc1OCC1CSCCN1C(=O)c1cccnc1C(=O)O (single isomer, unassigned) [Compound 6B (Enantiomer 1), 3-[3-[(2-formyl-3-hydroxyphenoxy)methyl]thiomorpholine-4-carbonyl]pyridine-2-carboxylic acid]	14.15%	–	–
O=Cc1c(O)cccc1OC[C@@H]1CCCCN1C(=O)c1ccccc1CC(=O)O [Compound 4A, 2-{2-[(2S)-2-[(2-formyl-3-hydroxyphenoxy)methyl]piperidine-1-carbonyl]phenyl} acetic acid]	63.6%	89.2 h	–
